Assay results from patent US20190216956A1, “COMPOSITIONS FOR RADIOTHERAPY AND USES THEREOF” (priority 2016, published 2019).
Several values for one entry are separate records, joined by “and”; a condition that tells them apart may be missing. Identical values can stand only once.

Key:
[1] = tested on: NCI-28H cells; assay: Cytotoxicity assay (MTS) of NCI-28H cells: carboplatin, mitomycin, gemcitabine, talc, talc bound to drugs (Example 22); details: for % survival from untreated cells: cells + drug, gemcitabine / Average reading: cells + drug, gemcitabine / % survival from untreated cells: cells + drug, carboplatin / Average reading: cells + drug, carboplatin: NCI-28H cells; for Average reading: cells + drug, gemcitabine / Average reading: cells + drug, carboplatin: absorbance 490 nm
Protocol: Read absorbance (MTS assay) and calculate cells survive rate. Compare survival rate
(§1) 1. Set up 3 cytotoxicity plates for tomorrow experiment: trypsinize NCI-28H cells (T-75 flask, passage 12): • Remove old medium, wash cells with 7 ml DPBS, remove DPBS, add 2 ml trypsin, incubate plates for 1-2′, when cells detached add 6 ml fresh medium, mix cells and medium. • Count cells under the microscope using the glass slide. […] If we need 200 wells, in each well will be 5,000 cells in 0.1 ml; so total we need 1,000,000 cells in 20 ml.
2. […] Final solution is 500 μL of 500 μM carboplatin.
4. […] Final solution is 500 μL of 200 μM Gemcitabine.
(§2) 1. Centrifuge tubes at 3200 rpm for 3 min. Take out supernatant.
3. Add 100 μL of each 8 preparations of diluted carboplatin (step 1 and 2) to the proper wells according to a plate layout.
4. Add 100 μL of each 8 preparations of diluted Gemcitabine (step 1, 2, 3) to the proper wells according to a plate layout.
6. Check the plate and start incubation at 37° C./5% CO2.
3. Wash all cells 1×300 μL DPBS, remove final wash.

[2] = tested on: NCI-28H cells; assay: Cytotoxicity assay (MTS) of NCI-28H cells: doxorubicin, cisplatin, paclitaxel, talc, talc bound to drugs (Example 21); format: cell-based; details: for % survival from untreated by DOX cells / AVERAGE: cells + DOX / Average reading: cells + cisplatin / % survival from untreated cells (cells + cisplatin): NCI-28H cells; for AVERAGE: cells + DOX / Average reading: cells + cisplatin: absorbance 490 nm
Protocol: Read absorbance (MTS assay) and calculate cells survival rate. Compare survival rate between each formulation.
as §1, with “Day 2” for “tomorrow”, “ml. […] In 50 ml Falcon tube, combine 16.6 ml fresh medium and 3.4 ml cells. Gently mix.” for “ml.”
3. […] Final solution is 500 μL of 20 μM.
as §2
6. Check the plate and start incubation at 37° C./5% CO2
3. Wash cells 1×300 μL media, remove final wash.

## Nc1ccn([C@@H]2O[C@H](CO)[C@@H](O)C2(F)F)c(=O)n1 [gemcitabine]
[1]
  cytotoxic effect on NCI-28H cells (comparison): clear cytotoxic effect
[1]; gemcitabine 0.0026 μM
  % survival from untreated cells: cells + drug, gemcitabine: 114.61%
  Average reading: cells + drug, gemcitabine: 2.034
[1]; gemcitabine 0.013 μM
  % survival from untreated cells: cells + drug, gemcitabine: 107.85%
  Average reading: cells + drug, gemcitabine: 1.914
[1]; gemcitabine 0.064 μM
  % survival from untreated cells: cells + drug, gemcitabine: 80.60%
  Average reading: cells + drug, gemcitabine: 1.43
[1]; gemcitabine 8 μM
  % survival from untreated cells: cells + drug, gemcitabine: 56.58%
  Average reading: cells + drug, gemcitabine: 1.004
[1]; gemcitabine 40 μM
  % survival from untreated cells: cells + drug, gemcitabine: 60.09%
  Average reading: cells + drug, gemcitabine: 1.0663
[1]; gemcitabine 200 μM
  % survival from untreated cells: cells + drug, gemcitabine: 52.70%
  Average reading: cells + drug, gemcitabine: 0.9352

## COc1cccc2c1C(=O)c1c(O)c3c(c(O)c1C2=O)C[C@@](O)(C(=O)CO)C[C@@H]3O[C@H]1C[C@H](N)[C@H](O)[C@H](C)O1 [Dox]
[2]; Dox 0.064 nM
  % survival from untreated by DOX cells: 86.3%
[2]; Dox 8 nM
  % survival from untreated by DOX cells: 83.4%
[2]; Dox 40 nM
  % survival from untreated by DOX cells: 77.4%
[2]; Dox 200 nM
  % survival from untreated by DOX cells: 65.0%
[2]; Dox 1000 nM
  % survival from untreated by DOX cells: 48.6%
[2]; Dox 5000 nM
  % survival from untreated by DOX cells: 46.2%

## N.N.O=C([O-])C1(C(=O)[O-])CCC1.[Pt+2] [carboplatin]
[1]; carboplatin 0.006 μM
  % survival from untreated cells: cells + drug, carboplatin: 90.84% and 94.28%
  Average reading: cells + drug, carboplatin: 1.504
[1]; carboplatin 0.8 μM
  % survival from untreated cells: cells + drug, carboplatin: 85.98% and 87.53%
  Average reading: cells + drug, carboplatin: 1.4238
[1]; carboplatin 4 μM
  % survival from untreated cells: cells + drug, carboplatin: 96.93% and 93.62%
  Average reading: cells + drug, carboplatin: 1.605
[1]; carboplatin 20 μM
  % survival from untreated cells: cells + drug, carboplatin: 104.81% and 99.20%
  Average reading: cells + drug, carboplatin: 1.7355
[1]; carboplatin 100 μM
  % survival from untreated cells: cells + drug, carboplatin: 83.82% and 79.53%
  Average reading: cells + drug, carboplatin: 1.388
[1]; carboplatin 500 μM
  % survival from untreated cells: cells + drug, carboplatin: 37.38% and 35.14%
  Average reading: cells + drug, carboplatin: 0.6189

## talc
[1]
  cytotoxic effect on NCI-28H cells (comparison): clear cytotoxic effect

## COc1cccc2c1C(=O)c1c(O)c3c(c(O)c1C2=O)C[C@@](O)(C(=O)CO)C[C@@H]3O[C@H]1C[C@H](N)[C@H](O)[C@H](C)O1 [DOX]
[2]; 125 nM DOX
  % survival NCI-28H cells after different treatment (compare to untreated cells): 70%
[2]; DOX 0.000064 μM
  AVERAGE: cells + DOX: 1.18
[2]; DOX 0.2 μM
  AVERAGE: cells + DOX: 0.89
[2]; DOX 1 μM
  AVERAGE: cells + DOX: 0.67
[2]; DOX 5 μM
  AVERAGE: cells + DOX: 0.63

## N.N.[Cl][Pt][Cl] [cisplatin]
[2]; Cisplatin 0.0013 μM
  Average reading: cells + cisplatin: 1.37
[2]; Cisplatin 0.0064 μM
  Average reading: cells + cisplatin: 1.19
[2]; Cisplatin 0.8 μM
  Average reading: cells + cisplatin: 1.23
[2]; Cisplatin 4 μM
  Average reading: cells + cisplatin: 1.18
[2]; Cisplatin 20 μM
  Average reading: cells + cisplatin: 0.48
[2]; Cisplatin 100 μM
  Average reading: cells + cisplatin: 0.59
[2]; cisplatin 0.0013 (μM per Table 64)
  % survival from untreated cells (cells + cisplatin): 91.07%
[2]; cisplatin 0.0064 (μM per Table 64)
  % survival from untreated cells (cells + cisplatin): 79.21%
[2]; cisplatin 0.032 (μM per Table 64)
  % survival from untreated cells (cells + cisplatin): 76.66%
[2]; cisplatin 0.16 (μM per Table 64)
  % survival from untreated cells (cells + cisplatin): 79.74%
[2]; cisplatin 0.8 (μM per Table 64)
  % survival from untreated cells (cells + cisplatin): 82.09%
[2]; cisplatin 4 (μM per Table 64)
  % survival from untreated cells (cells + cisplatin): 78.41%
[2]; cisplatin 20 (μM per Table 64)
  % survival from untreated cells (cells + cisplatin): 31.99%
[2]; cisplatin 100 (μM per Table 64)
  % survival from untreated cells (cells + cisplatin): 39.35%
